Measurements reported in patent US11006626B2, “Compounds for protection of cells” (Sulfateq B.V., priority 2012, dated 2021).

Columns and labels:
Assay type in all cases: cell-based
[1] = tested on: PRP platelets; test: PRP platelets stored with Sul 136, aggregation after stimulation with ADP; set-up: key to aggregation of the platelets after stimulation with ADP: +means that the cells show aggregation and can thus be activated upon stimulation; −means no aggregation upon stimulation
Method: (§1) […] • The color and coagulation properties were visually analysed. • The thrombocyte cells that survived were counted and it was evaluated whether the thrombocytes were aggregated. • It was evaluated if the thrombocytes still were able to function after stimulation by the addition of ADP or under influence of collagen in a 96 well plate. • The adhesion was evaluated, meaning the ability of the platelets to bind collagen in a 6 well plate preincubated with collagen. • Via an ELISA assay, it was evaluated whether thromboxane was secreted from the platelets. Thromboxane facilitates aggregation and is produced by activated blood platelets.
(+means that the cells show aggregation and can thus be activated upon stimulation, −means no aggregation upon stimulation)

[2] = tested on: apherese blood platelets; test: Apheresis platelets stored with Sul 136, platelet aggregation (Platelet Aggregation Profiler PAP 8); settings: for Platelet aggregation ADP (%) / Platelet aggregation Collagen (%): stored at 4° C. with Sul 136
Method: 300 μM suspension of Sul 136 is added with a procedure, which keeps the bag content sterile and the Sul 136 is kept in suspension by frequent whirling and stored at 37° C. before it is added to the freshly harvested platelets. The Sul 136 suspension is added to three platelet bags directly from the bag. After addition, the content of the platelet bag is gently mixed. After 2 hours the first sample is drawn with a seal-docked sample bag. The sample bag is disconnected by welding and from this sample bag the samples are taken for hematology analyzing, aggregometer tests and the flow-cytometry tests. Swirling in the bag is reported by experience of the laboratory worker in the standard format. Platelets without Sul 136 put on a flatbed shaker and stored at room temperature were used as control. Another control is stored at 4° C. Platelet samples in which Sul 136 is added, are stored without shaking in a refrigerator at 4° C.
Platelet aggregation was measured according to Platelet Aggregation Profiler PAP 8 (Mölab) using all reagents from Mölab.
3 ml platelet concentrate was centrifuged at 3000 RPM to get PPP. 1800 μl PPP and 600 μl PRP were mixed.
225 μl PRP was brought in test tube with magnetic stirrer. 225 μl PPP+25 μl aquadest was brought in test tube without magnetic stirrer. PPP was used for basis. PRP was put during 2 min at 37° C. on a roller. Measurement with PRP in aggregometer was started after 30 seconds with 25 μl inductor. Measurement was performed during 6 min.

[3] = tested on: PRP platelets; test: PRP platelets stored with Sul 136, aggregation after stimulation with collagen; settings: 10 mM
Method: as §1
(+means that the cells show aggregation, ++means strong aggregation, these platelets can thus be activated upon stimulation, −means no aggregation upon stimulation)

Cc1c(C)c2c(c(C)c1O)CCC(C)(C(=O)N1CCN(CC(=O)O)CC1)O2 (racemic) [SUL - 136, 2-(4-(6-hydroxy-2,5,7,8-tetramethylchroman-2-carbonyl)piperazin-1-yl)acetic acid]
−: aggregation of the platelets after stimulation with ADP ([1]; 10 min 0.001 mM, 24 h) | aggregation of the platelets after stimulation with ADP ([1]; 10 min 0.001 mM, 48 h) | aggregation of the platelets after stimulation with ADP ([1]; 10 min 0.001 mM, 72 h) | aggregation of the platelets after stimulation with ADP ([1]; 10 min 0.001 mM, 216 h) | aggregation of the platelets after stimulation with ADP ([1]; 10 min 0.01 mM, 24 h) | aggregation of the platelets after stimulation with ADP ([1]; 10 min 0.01 mM, 48 h) | aggregation of the platelets after stimulation with ADP ([1]; 10 min 0.01 mM, 72 h) | aggregation of the platelets after stimulation with ADP ([1]; 10 min 0.01 mM, 216 h) | aggregation of the platelets after stimulation with ADP ([1]; 10 min 0.1 mM, 24 h) | aggregation of the platelets after stimulation with ADP ([1]; 10 min 0.1 mM, 48 h) | aggregation of the platelets after stimulation with ADP ([1]; 10 min 0.1 mM, 72 h) | aggregation of the platelets after stimulation with ADP ([1]; 10 min 0.1 mM, 216 h) | aggregation of the platelets after stimulation with ADP ([1]; 10 min 1 mM, 24 h) | aggregation of the platelets after stimulation with ADP ([1]; 10 min 1 mM, 48 h) | aggregation of the platelets after stimulation with ADP ([1]; 10 min 1 mM, 72 h) | aggregation of the platelets after stimulation with ADP ([1]; 10 min 1 mM, 216 h) | aggregation of the platelets after stimulation with ADP ([1]; 60 min 0.001 mM, 24 h) | aggregation of the platelets after stimulation with ADP ([1]; 60 min 0.001 mM, 48 h) | aggregation of the platelets after stimulation with ADP ([1]; 60 min 0.001 mM, 72 h) | aggregation of the platelets after stimulation with ADP ([1]; 60 min 0.001 mM, 216 h) | aggregation of the platelets after stimulation with ADP ([1]; 60 min 0.01 mM, 24 h) | aggregation of the platelets after stimulation with ADP ([1]; 60 min 0.01 mM, 48 h) | aggregation of the platelets after stimulation with ADP ([1]; 60 min 0.01 mM, 72 h) | aggregation of the platelets after stimulation with ADP ([1]; 60 min 0.01 mM, 216 h) | aggregation of the platelets after stimulation with ADP ([1]; 60 min 0.1 mM, 24 h) | aggregation of the platelets after stimulation with ADP ([1]; 60 min 0.1 mM, 48 h) | aggregation of the platelets after stimulation with ADP ([1]; 60 min 0.1 mM, 72 h) | aggregation of the platelets after stimulation with ADP ([1]; 60 min 0.1 mM, 216 h) | aggregation of the platelets after stimulation with ADP ([1]; 60 min 1 mM, 24 h) | aggregation of the platelets after stimulation with ADP ([1]; 60 min 1 mM, 48 h) | aggregation of the platelets after stimulation with ADP ([1]; 60 min 1 mM, 72 h) | aggregation of the platelets after stimulation with ADP ([1]; 60 min 1 mM, 216 h) | aggregation of the platelets after stimulation with ADP ([1]; 60 min 10 mM, 216 h)
32%: Platelet aggregation Collagen (%) ([2]; donor 1, Day 19)
restored: platelet aggregation upon stimulation with collagen and ADP ([2]; donor 1, day 12 and day 19, stored at 4° C.)
5%: Platelet aggregation Collagen (%) ([2]; Donor 2, Day 12)
31%: Platelet aggregation ADP (%) ([2]; donor 1, Day 19)
0%: Platelet aggregation ADP (%) ([2]; Donor 2, Day 1) | Platelet aggregation Collagen (%) ([2]; Donor 2, Day 1) | Platelet aggregation ADP (%) ([2]; Donor 2, Day 2) | Platelet aggregation Collagen (%) ([2]; Donor 2, Day 2) | Platelet aggregation ADP (%) ([2]; Donor 2, Day 3) | Platelet aggregation ADP (%) ([2]; Donor 2, Day 5) | Platelet aggregation Collagen (%) ([2]; Donor 2, Day 5) | Platelet aggregation ADP (%) ([2]; Donor 2, Day 8) | Platelet aggregation Collagen (%) ([2]; Donor 2, Day 8) | Platelet aggregation ADP (%) ([2]; Donor 2, Day 10) | Platelet aggregation Collagen (%) ([2]; Donor 2, Day 10) | Platelet aggregation ADP (%) ([2]; Donor 2, Day 12) | Platelet aggregation ADP (%) ([2]; Donor 2, Day 19) | Platelet aggregation Collagen (%) ([2]; Donor 2, Day 19) | Platelet aggregation ADP (%) ([2]; Donor 3, Day 1) | Platelet aggregation Collagen (%) ([2]; Donor 3, Day 1) | Platelet aggregation ADP (%) ([2]; Donor 3, Day 2) | Platelet aggregation Collagen (%) ([2]; Donor 3, Day 2) | Platelet aggregation ADP (%) ([2]; Donor 3, Day 3) | Platelet aggregation Collagen (%) ([2]; Donor 3, Day 3) | Platelet aggregation Collagen (%) ([2]; Donor 3, Day 5) | Platelet aggregation ADP (%) ([2]; Donor 3, Day 8) | Platelet aggregation Collagen (%) ([2]; Donor 3, Day 8) | Platelet aggregation ADP (%) ([2]; Donor 3, Day 10) | Platelet aggregation Collagen (%) ([2]; Donor 3, Day 10) | Platelet aggregation ADP (%) ([2]; Donor 3, Day 12) | Platelet aggregation ADP (%) ([2]; Donor 3, Day 19) | Platelet aggregation Collagen (%) ([2]; Donor 3, Day 19) | Platelet aggregation ADP (%) ([2]; donor 1, Day 1) | Platelet aggregation Collagen (%) ([2]; donor 1, Day 1) | Platelet aggregation ADP (%) ([2]; donor 1, Day 2) | Platelet aggregation Collagen (%) ([2]; donor 1, Day 2) | Platelet aggregation ADP (%) ([2]; donor 1, Day 3) | Platelet aggregation Collagen (%) ([2]; donor 1, Day 3) | Platelet aggregation ADP (%) ([2]; donor 1, Day 5) | Platelet aggregation Collagen (%) ([2]; donor 1, Day 5) | Platelet aggregation ADP (%) ([2]; donor 1, Day 8) | Platelet aggregation Collagen (%) ([2]; donor 1, Day 8) | Platelet aggregation ADP (%) ([2]; donor 1, Day 10) | Platelet aggregation Collagen (%) ([2]; donor 1, Day 10)
showed still activity: activity after stimulation with collagen [3]
8%: Platelet aggregation Collagen (%) ([2]; Donor 3, Day 12)
12%: Platelet aggregation ADP (%) ([2]; donor 1, Day 12)
+: aggregation of the platelets after stimulation with ADP ([1]; 10 min 0.001 mM, 0 h) | aggregation of the platelets after stimulation with ADP ([1]; 10 min 0.01 mM, 0 h) | aggregation of the platelets after stimulation with ADP ([1]; 10 min 0.1 mM, 0 h) | aggregation of the platelets after stimulation with ADP ([1]; 10 min 1 mM, 0 h) | aggregation of the platelets after stimulation with ADP ([1]; 10 min 10 mM, 0 h) | aggregation of the platelets after stimulation with ADP ([1]; 10 min 10 mM, 24 h) | aggregation of the platelets after stimulation with ADP ([1]; 10 min 10 mM, 48 h) | aggregation of the platelets after stimulation with ADP ([1]; 10 min 10 mM, 72 h) | aggregation of the platelets after stimulation with ADP ([1]; 10 min 10 mM, 216 h) | aggregation of the platelets after stimulation with ADP ([1]; 60 min 0.001 mM, 0 h) | aggregation of the platelets after stimulation with ADP ([1]; 60 min 0.01 mM, 0 h) | aggregation of the platelets after stimulation with ADP ([1]; 60 min 0.1 mM, 0 h) | aggregation of the platelets after stimulation with ADP ([1]; 60 min 1 mM, 0 h) | aggregation of the platelets after stimulation with ADP ([1]; 60 min 10 mM, 0 h) | aggregation of the platelets after stimulation with ADP ([1]; 60 min 10 mM, 24 h) | aggregation of the platelets after stimulation with ADP ([1]; 60 min 10 mM, 48 h) | aggregation of the platelets after stimulation with ADP ([1]; 60 min 10 mM, 72 h)
still showed activity: activity after stimulation with ADP ([1]; 10 mM)
17%: Platelet aggregation Collagen (%) ([2]; donor 1, Day 12)
6%: Platelet aggregation ADP (%) ([2]; Donor 3, Day 5)
4%: Platelet aggregation Collagen (%) ([2]; Donor 2, Day 3)
